In patent US20240335569A1, “FIBROBLAST ACTIVATION PROTEIN INHIBITORS AND USE THEREOF” (3 B PHARMACEUTICALS GMBH, priority 2021, published 2024):
Read-outs that look alike come from different tables or passages of the source.

Assays:
[1] = molecular target: Recombinant mouse FAP (Mus musculus (Mouse), UniProt P97321); assay: FAP protease activity assay (mouse), FRET-based; format: biochemical; conditions: recombinant mouse FAP, FRET protease activity
Experimental: (§1) In order to determine the inhibitory activity a FRET-based FAP protease activity assay was established.
Four parameter logistic (4PL) curve fitting and pIC50 calculations were performed using ActivityBase software.

[2] = molecular target: T1, Human recombinant FAP (Homo sapiens (Human), UniProt Q12884); assay: Surface plasmon resonance assay (Biacore T200, SCK); format: binding; conditions: for HL [min] (Biacore): SPR dissociation half-life
Experimental: Surface plasmon resonance studies were performed using a Biacore™ T200 SPR system (Cytiva, formerly GE Healthcare). Briefly, polarized light is directed towards a gold-labeled sensor surface, and minimum intensity reflected light is detected. The angle of reflected light changes as molecules bind and dissociate. […] Test compounds are contacted with the loaded surface, and a real-time interaction profile with the FAP ligand is recorded in a sensorgram. In real-time, the association and dissociation of a binding interaction is measured, enabling calculation of association and dissociation rate constants and the corresponding affinity constants. Importantly, a background response is generated due to the difference in the refractive indices of the running and sample buffers, as well as unspecific binding of the test compounds to the flow cell surface. This background is measured and subtracted by running the sample on a control flow cell coated with the same density of capture antibody in the absence of immobilized FAP. Furthermore, baseline drift correction of the binding data is performed, which is caused by slow dissociation of the captured FAP from the immobilized antibody. This drift is measured by injecting running buffer through a flow cell with the antibody and FAP immobilized to the sensor surface.
Biacore™ CM5 sensor chips were used. […] A 150 μL aliquot was transferred into plastic vials and placed into the sample rack of the Biacore™ T200 instrument. Amine Coupling Kit Reagent solutions were transferred into plastic vials and placed into the sample rack: 90 μL of 0.4 M 1-ethyl-3-(3-dimethylaminopropyl) carbodiimide (EDC), and 90 μL of 0.1 M N-hydroxysuccinimide (NHS). A 130 μL aliquot of 1 M ethanolamine-HCl, pH 8.5, was transferred into plastic vials and placed into the sample rack. The Biacore™ liquid system was set-up as follows: Separate bottles containing distilled water (1 L), Running Buffer (500 mL), as well as an empty bottle for waste were placed onto the buffer tray. A preinstalled program for immobilization was used, with an immobilization level of 7000 RU. Immobilization was performed at 25° C. The immobilization procedure of anti-FAP antibodies was performed, as described in the Table 4.
Human recombinant FAP was diluted in Running Buffer to a final concentration of 20 μg/mL. A 100 μL aliquot of human FAP-Working-Solution was transferred into plastic vials and placed into a sample rack. A 0.5 mM Compound-Stock-Solution was prepared by dissolving each compound in DMSO. For each test compound, Compound-Stock-Solutions were diluted in Running Buffer (HBST) at 500 nM and further diluted with HBST-DMSO Buffer (0.1% DMSO). SPR binding analyses for binary complexes were performed in SCK mode at 25° C. Following three SCK measurements, a baseline drift was assessed by injecting running buffer through a flow cell, with the antibody and FAP immobilized to the sensor surface.
For each test compound, SPR raw data in the form of resonance units (RU) were plotted as sensorgrams using the Biacore™ T200 control software. The signal from the blank sensorgram was subtracted from that of the test compound sensorgram (blank corrected). The blank corrected sensorgram was corrected for baseline drift by subtracting the sensorgram of a SCK run without the test compound (running buffer only). The association rate (kon), dissociation rate (koff), dissociation constant (KD), and t1/2 were calculated from Blank-normalized SPR data using the 1:1 Langmuir binding model from the Biacore™ T200 evaluation software. Raw data and fit results were imported as text files in IDBS. The pKD value (negative decadic logarithm of dissociation constant) was calculated in the IDBS excel template.
Target sequence in this assay (Q12884 whole entry): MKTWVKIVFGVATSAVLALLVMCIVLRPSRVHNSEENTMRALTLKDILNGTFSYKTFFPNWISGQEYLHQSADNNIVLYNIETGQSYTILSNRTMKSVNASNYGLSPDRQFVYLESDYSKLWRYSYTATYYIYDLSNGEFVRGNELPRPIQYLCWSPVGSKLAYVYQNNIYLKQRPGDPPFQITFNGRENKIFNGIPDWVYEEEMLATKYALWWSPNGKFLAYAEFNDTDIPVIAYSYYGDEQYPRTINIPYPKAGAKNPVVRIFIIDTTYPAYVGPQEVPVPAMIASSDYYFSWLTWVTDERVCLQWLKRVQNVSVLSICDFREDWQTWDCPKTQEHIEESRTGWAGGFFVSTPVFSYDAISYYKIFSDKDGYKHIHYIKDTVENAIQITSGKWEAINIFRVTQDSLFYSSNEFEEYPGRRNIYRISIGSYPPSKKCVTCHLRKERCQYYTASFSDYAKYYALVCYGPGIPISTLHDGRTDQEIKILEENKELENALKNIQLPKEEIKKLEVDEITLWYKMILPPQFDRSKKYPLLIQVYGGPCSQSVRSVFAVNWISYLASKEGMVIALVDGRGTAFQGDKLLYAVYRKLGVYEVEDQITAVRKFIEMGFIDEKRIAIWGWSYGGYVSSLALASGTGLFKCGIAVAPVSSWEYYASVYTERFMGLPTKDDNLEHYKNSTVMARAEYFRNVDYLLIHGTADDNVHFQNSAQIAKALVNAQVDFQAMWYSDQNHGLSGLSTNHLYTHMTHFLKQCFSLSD

[3] = molecular target: Recombinant human DPP4 (Homo sapiens (Human), UniProt P27487); assay: DPP4 protease activity assay; format: biochemical
Recombinant human DPP4, sequence (P27487 whole entry): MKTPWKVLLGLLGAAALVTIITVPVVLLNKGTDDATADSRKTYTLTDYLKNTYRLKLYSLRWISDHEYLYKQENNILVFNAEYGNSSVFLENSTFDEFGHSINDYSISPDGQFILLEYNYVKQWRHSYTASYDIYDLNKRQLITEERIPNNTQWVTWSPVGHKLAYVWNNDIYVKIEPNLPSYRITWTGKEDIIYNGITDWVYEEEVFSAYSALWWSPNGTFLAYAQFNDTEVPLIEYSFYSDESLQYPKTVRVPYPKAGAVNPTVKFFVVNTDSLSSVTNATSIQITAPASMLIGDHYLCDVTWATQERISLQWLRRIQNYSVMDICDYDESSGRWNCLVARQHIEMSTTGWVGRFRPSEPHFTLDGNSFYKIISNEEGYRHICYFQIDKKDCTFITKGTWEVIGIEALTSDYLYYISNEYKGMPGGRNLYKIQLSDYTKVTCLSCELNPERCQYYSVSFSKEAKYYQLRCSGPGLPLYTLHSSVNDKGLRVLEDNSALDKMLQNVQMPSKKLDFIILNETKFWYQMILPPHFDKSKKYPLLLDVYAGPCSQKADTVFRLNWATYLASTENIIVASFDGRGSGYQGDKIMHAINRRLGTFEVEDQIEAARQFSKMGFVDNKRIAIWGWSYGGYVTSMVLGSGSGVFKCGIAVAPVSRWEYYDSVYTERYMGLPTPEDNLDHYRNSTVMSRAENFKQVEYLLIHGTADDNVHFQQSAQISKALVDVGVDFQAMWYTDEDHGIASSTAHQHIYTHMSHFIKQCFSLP
Experimental: (§2) The PREP activity assay was performed using the FACS buffer (PBS including 1% FBS, Sigma-Aldrich, Cat #D8537). […] The DPP4 activity assay was performed in DPP assay buffer (25 mM Tris, pH 8.0). […] Four parameter logistic (4PL) curve fitting and pIC50 calculations were performed using ActivityBase software.

[4] = molecular target: T1, Human recombinant FAP; assay: FAP protease activity assay (human), FRET-based; format: biochemical; conditions: recombinant human FAP, FRET protease activity
Experimental: as §1
Target sequence in this assay (Q12884 26-760): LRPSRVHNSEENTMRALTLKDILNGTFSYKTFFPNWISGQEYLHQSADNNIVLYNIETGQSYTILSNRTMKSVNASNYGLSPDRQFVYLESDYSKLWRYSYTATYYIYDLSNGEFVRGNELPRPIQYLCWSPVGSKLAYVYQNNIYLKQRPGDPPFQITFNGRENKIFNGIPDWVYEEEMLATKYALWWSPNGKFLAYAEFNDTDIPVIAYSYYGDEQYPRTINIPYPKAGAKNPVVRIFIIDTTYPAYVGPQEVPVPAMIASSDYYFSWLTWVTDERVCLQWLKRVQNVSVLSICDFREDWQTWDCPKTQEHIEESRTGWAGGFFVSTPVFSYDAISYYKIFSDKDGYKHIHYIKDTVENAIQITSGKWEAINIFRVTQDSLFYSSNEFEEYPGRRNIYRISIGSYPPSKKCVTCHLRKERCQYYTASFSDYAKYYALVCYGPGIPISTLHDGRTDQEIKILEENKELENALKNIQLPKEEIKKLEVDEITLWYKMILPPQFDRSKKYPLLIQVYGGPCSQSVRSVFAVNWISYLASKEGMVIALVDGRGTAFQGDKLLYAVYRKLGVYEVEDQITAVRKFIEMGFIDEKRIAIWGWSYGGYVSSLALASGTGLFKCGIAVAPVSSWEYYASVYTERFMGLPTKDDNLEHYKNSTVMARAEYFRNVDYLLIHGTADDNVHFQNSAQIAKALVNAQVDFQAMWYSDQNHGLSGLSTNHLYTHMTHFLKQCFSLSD
Four parameter logistic (4PL) curve fitting and pIC50 calculations were performed using ActivityBase software (IDBS).

[5] = Plasma stability assay (mouse plasma); format: in vitro ADME; conditions: 37° C., 4 h
Experimental: In order to determine the stability of selected compounds of the invention in human and mouse plasma, a plasma stability assay was carried out. Such plasma stability assay measures degradation of compounds of the present invention in blood plasma. This is an important characteristic of a compound as compounds, with the exception of pro-drugs, which rapidly degrade in plasma, generally show poor in vivo efficacy. […] The stability is sufficient for the diagnostic, therapeutic and theragnostic use of these compounds according to the present invention.
The plasma stability samples were prepared by spiking 50 μl plasma aliquots (all sodium citrate 3.8%) with 1 μL of a 0.5 mM compound stock solution in DMSO. After vortexing, the samples were incubated in a Thermomixer at 37° C. for 4 or 6 hours. After incubation, the samples were stored on ice until further treatment. All samples were prepared in duplicates.
A suitable internal standard was added to each sample (1 μL of a 0.5 mM stock solution in DMSO). Protein precipitation was performed using two different methods depending on the compound conditions as indicated in Table 7. • A) 250 μL of acetonitrile containing 1% trifluoroacetic acid was added. […] After incubation at room temperature for 30 min, the precipitate was separated by centrifugation. To 100 μL of the supernatant 10 μL of 1% formic acid was added followed by further incubation at 60° C. for 10 min to complete the formation of the zinc chelate, if the compound contains a free DOTA moiety.
The determination of the analyte in the clean sample solutions was performed on an Agilent 1290 UHPLC system coupled to an Agilent 6530 Q-TOF mass spectrometer. The chromatographic separation was carried out on a Phenomenex BioZen XB-C18 HPLC column (50×2 mm, 1.7 μm particle size) with gradient elution using a mixture of 0.1% formic acid in water as eluent A and acetonitrile as eluent B (2% B to 41% in 7 min, 800 μL/min, 40° C.). Mass spectrometric detection was performed in positive ion ESI mode by scanning the mass range from m/z 50 to 3000 with a sampling rate of 2/sec.
From the mass spectrometric raw data, the ion currents for the double or triple charged monoisotopic signal was extracted for both, the compound and the internal standard.
Quantitation was performed by external matrix calibration with internal standard using the integrated analyte signals.
The result is stated as “% intact compound remaining after 4 h or 6 h” and means that from the amount of material at the start of the experiment the stated percentage is detected as unchanged material at the end of the experiment by LC-MS quantification. Since all compounds are more than 50% intact after at least 4 h they are considered as stable enough for diagnostic and therapeutic applications.

[6] = molecular target: FAP-expressing human WI-38 fibroblasts (Homo sapiens (Human), UniProt Q12884); assay: FACS binding assay (competitive, Cy5-labeled 3BP-2935); conditions: FAP-expressing WI-38 fibroblasts
FAP-expressing human WI-38 fibroblasts, sequence (Q12884 whole entry): as the sequence (Q12884 whole entry) above
Experimental: In order to determine binding of compounds according to the present invention to FAP-expressing cells, a competitive FACS binding assay was established. […] Cells were diluted in FACS buffer to a final concentration of 100.000 cells per ml and 200 μl of the cell suspension are transferred to a u-shaped non-binding 96-well plate (Greiner). […] Cell were washed twice with FACS buffer (see above) and resuspended in 200 μl FACS buffer. Cells were analyzed in an Attune NxT flow cytometer (Thermo Fisher Scientific). Median fluorescence intensities (Cy5 channel) were calculated by Attune NxT software and plotted against test compound concentrations. Four parameter logistic (4PL) curve fitting and pIC50 calculations were performed using ActivityBase software.

[7] = molecular target: recombinant human PREP (Homo sapiens (Human), UniProt P48147); assay: PREP protease activity assay; format: biochemical
recombinant human PREP, sequence (P48147 whole entry): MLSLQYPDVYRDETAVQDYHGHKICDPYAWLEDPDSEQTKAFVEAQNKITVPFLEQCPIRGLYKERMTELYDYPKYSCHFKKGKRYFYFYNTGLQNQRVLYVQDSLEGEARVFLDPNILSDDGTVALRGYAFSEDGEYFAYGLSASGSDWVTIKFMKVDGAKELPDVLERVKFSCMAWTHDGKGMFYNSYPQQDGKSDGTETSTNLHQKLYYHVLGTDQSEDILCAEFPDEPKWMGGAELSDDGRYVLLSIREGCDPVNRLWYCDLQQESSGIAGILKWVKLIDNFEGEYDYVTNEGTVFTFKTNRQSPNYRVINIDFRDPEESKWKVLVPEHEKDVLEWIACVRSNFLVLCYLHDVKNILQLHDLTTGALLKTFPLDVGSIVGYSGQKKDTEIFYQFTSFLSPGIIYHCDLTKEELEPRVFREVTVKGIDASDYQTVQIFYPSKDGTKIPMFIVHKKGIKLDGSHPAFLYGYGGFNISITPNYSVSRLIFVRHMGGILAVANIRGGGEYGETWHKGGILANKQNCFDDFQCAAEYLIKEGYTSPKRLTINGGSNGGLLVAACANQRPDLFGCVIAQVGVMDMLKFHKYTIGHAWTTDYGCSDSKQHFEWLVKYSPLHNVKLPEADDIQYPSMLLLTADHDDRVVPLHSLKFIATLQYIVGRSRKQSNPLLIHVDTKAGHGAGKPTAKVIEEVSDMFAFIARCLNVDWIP
Experimental: as §2

[8] = molecular target: HEK-FAP cells (HEK293 cells engineered to express the human FAP) (Homo sapiens (Human), UniProt Q12884); assay: LigandTracer assay with 111In-labeled compounds; format: binding; conditions: 111In-labeled compound
Experimental: HEK293 cells (human embryonic kidney cells) were engineered to express the human FAP. […] Cell concentrations were adjusted to 3×10^5 mL^−1, and 3.000 μL of the suspension was dispensed into a poly-lysine-coated, clear cell dish (10 cm). Approximately 24 hours after re-seeding, the medium was replaced by assay medium (Ham's medium with 20 mM HEPES) containing 1% FCS. The dish was placed in the LigandTracer® device and a baseline measurement was obtained using the LigandTracer® Control software (version 2.4). […] To determine the dissociation rate (kd) the cells were washed and subsequently incubated with fresh assay medium for several hours.

[9] = tested on: HT-29 cells; assay: Stability in the presence of tumor cells (HT-29), FAP IC50 of supernatants; format: in vitro ADME, human
Experimental: Cells were cultured in McCoys's 5A modified medium (Biochrom, #F1015) including 10% fetal bovine serum (FBS), 2 mM L-glutamine, 100 U/ml penicillin and 100 μg/mL streptomycin (growth medium). […] 1 mL of the cell suspension were seeded in 24-well plates and incubated overnight at 37° C. and 5% CO2. The next day, cells were washed twice and growth medium was exchanged against DMEM without phenol red (Biochrom, #F0475) including 2 mM L-glutamine. Test compound was diluted in DMEM without phenol red (Biochrom, #F0475) including 2 mM L-glutamine. 400 μL of a 10 μM solution of the test compound was incubated for 24 hours at 37° C. and 5% CO2 in the presence of cells as well as in control wells (without cells) of the same 24-well plate.
25 μL of a 30 μM substrate solution, diluted in assay buffer, was added. All solutions were equilibrated at 37° C. prior to use. […] RFU/sec was calculated by SoftMax Pro software and plotted against test compound concentration. Four parameter logistic (4PL) curve fitting and IC50/pIC50 calculations were performed using GraphPad Prism 9.1 software.
The stability of exemplary compounds was further assessed in the presence of a variety of human cell lines from different tissue origins. […] Compounds were diluted in DMEM without phenol red (Biochrom, #F0475) including 2 mM L-glutamine. 400 μL of a 10 μM solution of the test compound was incubated for 24 hours at 37° C. and 5% CO2 in the presence of cells as well as in control wells (without cells) of the same 24-well plate. IC50/pIC50 determination of the supernatants was performed as described above.

Recombinant mouse FAP, sequence (P97321 whole entry): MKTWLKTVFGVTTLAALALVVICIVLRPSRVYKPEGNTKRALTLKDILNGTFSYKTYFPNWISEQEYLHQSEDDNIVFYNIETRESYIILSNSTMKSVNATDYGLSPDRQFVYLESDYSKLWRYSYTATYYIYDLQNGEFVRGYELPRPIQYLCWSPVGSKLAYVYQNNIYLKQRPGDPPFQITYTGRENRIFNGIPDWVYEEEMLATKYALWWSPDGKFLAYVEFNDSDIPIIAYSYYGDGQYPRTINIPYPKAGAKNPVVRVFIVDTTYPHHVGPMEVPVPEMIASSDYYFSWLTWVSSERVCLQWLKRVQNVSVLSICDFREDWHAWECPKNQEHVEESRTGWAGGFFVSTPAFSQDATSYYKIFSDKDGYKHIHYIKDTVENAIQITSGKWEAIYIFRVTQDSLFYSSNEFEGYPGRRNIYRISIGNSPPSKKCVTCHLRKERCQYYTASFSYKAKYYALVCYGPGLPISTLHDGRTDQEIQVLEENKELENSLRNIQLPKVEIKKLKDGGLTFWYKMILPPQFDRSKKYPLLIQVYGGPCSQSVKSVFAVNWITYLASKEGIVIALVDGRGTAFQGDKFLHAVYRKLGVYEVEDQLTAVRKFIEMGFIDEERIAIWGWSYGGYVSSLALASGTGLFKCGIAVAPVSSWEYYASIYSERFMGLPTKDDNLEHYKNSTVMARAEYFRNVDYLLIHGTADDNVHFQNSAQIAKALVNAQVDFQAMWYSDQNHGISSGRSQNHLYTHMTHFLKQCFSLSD

| SMILES | pIC50 (mouseFAP) [1] | pKD (Biacore) ([2]; SPR) | HL [min] (Biacore) [2] | pIC50 (DPP4) [3] | pIC50 (Activity) [4] | % intact compound remaining after incubation, Mouse plasma [5] [%] | pIC50 (FACS) [6] | pIC50 (PREP) [7] | Kd ([2]; SPR, read-out: pKD (Biacore) (converted)) [nM] | IC50 ([4]; read-out: pIC50 (Activity) (converted)) [nM] | HL (half-life) [8] [h] | Kd [8] [nM] | IC50 ([9]; 10 μM compound, 24 hours at 37° C. with HT-29 cells, supernatant tested on recombinant human FAP, read-out: pIC50 (incubation in the presence of HT-29 cells) (converted)) [nM] | IC50 ([9]; HT-29, 10 μM compound, 24 hours at 37° C. in control wells without cells, supernatant tested on recombinant human FAP, read-out: pIC50 (incubation in cell medium w/o HT-29) (converted)) [nM] | Residual activity after incubation with HT-29 cells for 24 hours (%) [9] [%] | IC50 [6] [nM] | pIC50 (incubation in cell medium w/o HT-29) ([9]; 10 μM compound, 24 hours at 37° C. in control wells without cells, supernatant tested on recombinant human FAP) | pIC50 (incubation in the presence of HT-29 cells) ([9]; 10 μM compound, 24 hours at 37° C. with HT-29 cells, supernatant tested on recombinant human FAP) |
| --- | --- | --- | --- | --- | --- | --- | --- | --- | --- | --- | --- | --- | --- | --- | --- | --- | --- | --- |
| CS(=O)(=O)c1cccc(-c2ccc3nccc(C(=O)NCC(=O)N4CC(F)(F)C[C@H]4C#N)c3c2)c1 [Compound 3BP-3126] | 9 | 10.1 | 29 | 6.1 | 9.2 | 78 | 8.8 | <6 |  |  |  |  |  |  |  |  |  |  |
| CS(=O)(=O)c1cccc(-c2ccc3c(C(=O)NCC(=O)N4CC(F)(F)C[C@H]4C#N)ccnc3c2)c1 [Compound 3BP-3127] | 8.9 | 10.1 |  | <6 | 9.1 | >95 | 8.7 | <6 |  |  |  |  |  |  |  |  |  |  |
| CS(=O)(=O)c1ccc(-c2ccc3c(C(=O)NCC(=O)N4CCC[C@H]4C#N)ccnc3c2)cc1 [Compound 3BP-3128] |  | 9.2 | 4 | <6 | 8.8 | >95 | 8.2 | 6.1 |  |  |  |  |  |  |  |  |  |  |
| O=C(NCC(=O)N1CCC[C@H]1C(=O)c1ncco1)c1ccnc2ccccc12 [Compound 3BP-3208] |  | 8.6 | 0.6 | <6 | 8.2 | 92 | 7.9 | 9.2 |  |  |  |  |  |  |  |  |  |  |
| O=C(O)CN1CCN(CC(=O)O)CCN(CC(=O)NCCCS(=O)(=O)c2ccc(-c3ccc4nccc(C(=O)NCC(=O)N5CCC[C@H]5C(=O)c5nc6ccccc6o5)c4c3)cc2)CCN(CC(=O)O)CC1 [Compound 3BP-3581, (S)-2,2′,2″-(10-(2-(3-(4-(4-(2-(2-(benzo[d]oxazole-2-carbonyl)pyrrolidin-1-yl)-2-oxoethylcarbamoyl)quinolin-6-yl)phenylsulfonyl)propylamino)-2-oxoethyl)-1,4,7,10-tetraazacyclododecane-1,4,7-triyl)triacetic Acid] |  |  | 120 |  |  |  |  |  | < 0.0316 | 1.26 | 5.75 ± 3.63 | 0.0794 | 2 | 2 | >95 | 1.58 |  |  |
| O=C(O)CN1CCN(CC(=O)O)CCN(CC(=O)N2CCN(CCCOc3ccc4nccc(C(=O)NCC(=O)N5CCC[C@H]5C(=O)c5nc6ccccc6o5)c4c3)CC2)CCN(CC(=O)O)CC1 [Compound 3BP-4808] |  | >10.5 | >150 |  |  |  |  |  |  |  | 0.333 ± 0.083 |  |  |  | >95 |  | 8.6 | 8.6 |
